Patent publication US7425549B2, “Drug for the treatment of osteonecrosis and for the management of patients at risk of developing osteonecrosis” (The Royal Alexandra Hospital for Children, priority 2001, dated 2008)

Test system: traumatic osteonecrosis (femoral head)
Test: Model of traumatic osteonecrosis of the femoral head in rats, six weeks after operation
Format: in vivo, Wistar rats
Conditions: for BMC / BMD: femoral head, DEXA; for XR Head Area (% Contra): operated femoral head, six weeks
Description: A model of traumatic osteonecrosis was utilised in 24 female 14-week-old Wistar rats. The animals were followed for six weeks after an operation designed to disrupt the blood supply to the femoral head. The six week time point was chosen as a time point when femoral head collapse is known to have occurred in this model ^1. Animal ethics approval was received.
Rats were randomised in lots of 4 into three groups according to the schedule below. Controls receive only saline (S) injections via a subcutaneous route. Post-treated animals received saline only pre-operatively, but zoledronic acid (ZA) (Novartis) 0.1 mg/kg, from commercial stock, was administered by subcutaneous injection post-operatively at 1 and 4 weeks. Pre and Post-treated animals received zoledronic acid 0.1 mg/kg at all three time points.
The same operation was performed on each rat at time zero. All animals were weighed accurately before anaesthesia. Animals were kept warm during surgery and recovery. Anaesthesia was induced with a mixture of Ketamine 75 mg/kg and Xylazine 10 mg/kg. Drugs were mixed in the same syringe just prior to administration and given 0.2 mL per 100 g BW IM. Induction occurred within 5-10 minutes.
After sterile preparation and shaving of the right lower extremity, an open approach was made to the hip joint. The capsule was opened, and the right femoral head was dislocated from the acetabulum. The ligamentum teres divided, disrupting any blood supply from that source. The entire femoral neck was denuded of soft tissue by polishing with a vicryl suture. This disrupted the lateral epiphyseal artery and any other vessels supplying the head via the femoral neck.
Dual fluorescent labels were applied at weeks 4 and 5: at week 4 demeclocycline 30 mg/kg was administered intraperitoneally, and at week 5 calcein 20 mg/kg was administered intraperitoneally. One hour prior to culling 70 MBq Tc99 MDP was administered subcutaneously to allow bone scintigraphy to be performed on harvested specimens.
After culling, right and left proximal femora were harvested and fixed in 4% paraformaldehyde. Radiographs were taken in pairs on high quality film with a Faxitron Shielded Cabinet X-Ray System (Hewlett Packard, McMinnville, Oreg. X-ray images were digitised and analysed using Bioquant image analysis system (R&M Biometrics Inc., Nashville, Tenn.) connected to a digitizing tablet (GTCO CalComp, Inc., Columbia, Md.). Bone area, height and width of the femoral head were recorded and compared to the contralateral side. Scintigraphy scans were taken using 4 mm aperture pinholes. BMD and BMC were measured with a pDEXA Sabre scanner (Norland, Ft Atkinson Wis.).
Specimens were resin embedded and sectioned undecalcified. Coronal sections (6 microns) were cut through the femoral head. Sections were stained with von Kossa to assess trabecular bone volume and structure. Fluorescent microscopy was used on unstained sections to image the fluorescent labels and assess bone formation.

[1] = Post-Treated: 0.1 mg/kg s.c. at 1 and 4 weeks post-operatively
[2] = Pre- and Post: 0.1 mg/kg s.c. at all three time points

**Q.** How did the BMC [1] turn out when O=P(O)(O)C(O)(Cn1ccnc1)P(=O)(O)O [zoledronic acid, 1-hydroxy-2-[(1H-imidazol-1-yl)ethylidine] bisphosphonic acid] was run?
**A.** 0.012 g

**Q.** What about the BMD [1] of the same molecule?
**A.** 0.11 g/cm^2

**Q.** What about the “XR Head Area (% Contra)” value [1] of the same molecule?
**A.** 79 % Contra

**Q.** And the BMC [2]?
**A.** 0.015 g

**Q.** And the BMD [2]?
**A.** 0.12 g/cm^2

**Q.** And the “XR Head Area (% Contra)” value [2]?
**A.** 85 % Contra
